Patent US8912121B2, “Herbicidal compositions comprising 4-amino-3-chloro-5-fluoro-6-(4-chloro-2-fluoro-3-methoxyphenyl)pyridine-2-carboxylic acid or a derivative thereof and certain PS II inhibitors” (Dow Agrosciences LLC, priority 2012, dated 2014)

Tested on: BRAPP (Brachiaria platyphylla, broadleaf signalgrass)
Assay: Postemergence foliar-applied mixtures, direct seeded rice, greenhouse
Format: in vivo, Brachiaria platyphylla (Griseb.) Nash
From the text: Seeds or nutlets of the desired test plant species were planted in a soil matrix prepared by mixing a loam or sandy loam soil (e.g., 28.6 percent silt, 18.8 percent clay, and 52.6 percent sand, with a pH of about 5.8 and an organic matter content of about 1.8 percent) and calcareous grit in an 80 to 20 ratio. The soil matrix was contained in plastic pots with a volume of 1 quart and a surface area of 83.6 square centimeters (cm^2). When required to ensure good germination and healthy plants, a fungicide treatment and/or other chemical or physical treatment was applied. The plants were grown for 8-22 days in a greenhouse with an approximate 14 h photoperiod which was maintained at about 29° C. during the day and 26° C. during the night. Nutrients (Peters Excel® 15-5-15 5-Ca 2-Mg and iron chelate) were applied in the irrigation solution as needed and water was added on a regular basis. Supplemental lighting was provided with overhead metal halide 1000-Watt lamps as necessary. The plants were employed for testing when they reached the first through fourth true leaf stage.
Treatments consisted of the acid or esters of 4-amino-3-chloro-5-fluoro-6-(4-chloro-2-fluoro-3-methoxy-phenyl) pyridine-2-carboxylic acid (Compound A), each formulated as an SC (suspension concentrate), and various herbicidal components alone and in combination. Forms of compound A were applied on an acid equivalent basis.
Other herbicidal components were applied on an active ingredient basis and included Photosystem II (PSII)-inhibiting herbicides propanil formulated as Stam® M4 EC, bentazon-sodium formulated as Basagran®, atrazine formulated as Atrazine 90 WDG, bromoxynil octanoate ester formulated as Buctril®, simetryne (technical grade material), simazine formulated as Princep® Caliber 90, ioxynil (technical grade material), cyanazine (technical grade material), and hexazinone (technical grade material).
Treatment requirements were calculated based upon the rates being tested, the concentration of active ingredient or acid equivalent in the formulation, and a 12 mL application volume at a rate of 187 L/ha.
For treatments comprised of formulated compounds, measured amounts of compounds were placed individually in 25 mL glass vials and diluted in a volume of 1.25% (v/v) Agri-Dex® crop oil concentrated to obtain 12× stock solutions. […] Application solutions were prepared by adding an appropriate amount of each stock solution (e.g., 1 mL) and diluted to the appropriate final concentrations with the addition of 10 mL of an aqueous mixture of 1.25% (v/v) crop oil concentrate so that the final spray solutions contained 1.25+/−0.05% (v/v) crop oil concentrate.
For treatments comprised of technical compounds, weighed amounts can be placed individually in 25 mL glass vials and dissolved in a volume of 97:3 v/v acetone/DMSO to obtain 12× stock solutions. […] Application solutions can be prepared by adding an appropriate amount of each stock solution (e.g., 1 mL) and diluted to the appropriate final concentrations with the addition of 10 mL of an aqueous mixture of 1.5% (v/v) crop oil concentrate so that the final spray solutions contain 1.25% (v/v) crop oil concentrate. When technical materials are used, the concentrated stock solutions can be added to the spray solutions so that the final acetone and DMSO concentrations of the application solutions are 16.2% and 0.5%, respectively.
For treatments comprised of formulated and technical compounds, weighed amounts of the technical materials were placed individually in 25 mL glass vials and dissolved in a volume of 97:3 v/v acetone/DMSO to obtain 12× stock solutions, and measured amounts of the formulated compounds were placed individually in 25 mL glass vials and diluted in a volume of 1.5% (v/v) crop oil concentrate or water to obtain 12× stock solutions. […]

CCNc1nc(Cl)nc(NCC)n1 [Simazine, 6-chloro-N,N′-diethyl-1,3,5-triazine-2,4-diamine, reference compound]
Visual Weed Control (%) Obs (560 g ai/ha, 20 DAA): 0%
Visual Weed Control (%) Obs (1120 g ai/ha, 20 DAA): 0%
Visual Weed Control (%) Obs (2240 g ai/ha, 20 DAA): 0%

COc1c(Cl)ccc(-c2nc(C(=O)O)c(Cl)c(N)c2F)c1F [Compound A Acid, 4-amino-3-chloro-6-(4-chloro-2-fluoro-3-methoxyphenyl)-5-fluoropyridine-2-carboxylic acid]
Visual Weed Control (%) Obs (4.38 g ae/ha, 22 DAA): 45%
Visual Weed Control (%) Obs (8.75 g ae/ha, 22 DAA): 70%

CCNc1nc(Cl)nc(NC(C)C)n1 [Atrazine, 6-chloro-N-ethyl-N′-(1-methylethyl)-1,3,5-triazine-2,4-diamine, reference compound]
Visual Weed Control (%) Obs (280 g ai/ha, 22 DAA): 0%
Visual Weed Control (%) Obs (560 g ai/ha, 22 DAA): 0%

COc1c(Cl)ccc(-c2nc(C(=O)OCc3ccccc3)c(Cl)c(N)c2F)c1F [Compound A Benzyl Ester, benzyl ester of 4-amino-3-chloro-5-fluoro-6-(4-chloro-2-fluoro-3-methoxy-phenyl)pyridine-2-carboxylic acid]
Visual Weed Control (%) Obs (4.38 g ae/ha, 22 DAA): 55%
Visual Weed Control (%) Obs (8 g ae/ha, 20 DAA): 55%
Visual Weed Control (%) Obs (8.75 g ae/ha, 22 DAA): 70%
Visual Weed Control (%) Obs (16 g ae/ha, 20 DAA): 90%
Visual Weed Control (%) Obs (17.5 g ae/ha, 22 DAA): 75%
Visual Weed Control (%) Obs (32 g ae/ha, 20 DAA): 90%
